Source: PubChem BioAssay (NCI)
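Abbreviation: GI50, concentration required for 50% inhibition of growth. The concentration for full growth arrest is given as TGI.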

Legend:
Experiment in all cases: inhibition of tumour cell growth, NCI panel, 384-well format; in the data active = GI50 below about 0.43 µM; inactive = the rest
[1] = tested on: NCI-H23 lung
[2] = tested on: SK-MEL-28 melanoma
[3] = tested on: RXF 393 renal
[4] = tested on: CAKI-1 renal
[5] = tested on: PC-3 prostate
[6] = tested on: RPMI-8226 leukemia
[7] = tested on: NCI-H522 lung
[8] = tested on: LOX IMVI melanoma
[9] = tested on: HCT-15 colon
[10] = tested on: K-562 leukemia
[11] = tested on: MCF7 breast
[12] = tested on: HOP-62 NSCLC
[13] = tested on: MOLT-4 leukemia
[14] = tested on: COLO 205 colon
[15] = tested on: SR leukemia
[16] = tested on: UO-31 renal
[17] = tested on: U251 glioblastoma
[18] = tested on: SK-OV-3 ovarian
[19] = tested on: NCI-H226 lung
[20] = tested on: BT-549 breast
[21] = tested on: HCC-2998 colon
[22] = tested on: SK-MEL-5 melanoma
[23] = tested on: OVCAR-5 ovarian
[24] = tested on: A549 NSCLC
[25] = tested on: KM12 colon
[26] = tested on: NCI-H322M lung
[27] = tested on: OVCAR-4 ovarian
[28] = tested on: MALME-3M melanoma
[29] = tested on: HOP-92 NSCLC
[30] = tested on: SNB-19 CNS
[31] = tested on: MDA-MB-231 breast
[32] = tested on: EKVX NSCLC
[33] = tested on: T-47D breast
[34] = tested on: SF-539 CNS
[35] = tested on: IGROV1 ovarian
[36] = tested on: NCI-H460 NSCLC
[37] = tested on: HT29 colon
[38] = tested on: SW-620 colon
[39] = tested on: SN12C renal
[40] = tested on: NCI/ADR-RES ovarian
[41] = tested on: M14 melanoma
[42] = tested on: HS 578T breast
[43] = tested on: SF-268 CNS
[44] = tested on: SNB-75 CNS
[45] = tested on: MDA-MB-468 breast
[46] = tested on: OVCAR-3 ovarian
[47] = tested on: A498 renal
[48] = tested on: 786-0 renal
[49] = tested on: MDA-MB-435 melanoma
[50] = tested on: UACC-62 melanoma
[51] = tested on: DU-145 prostate
[52] = tested on: TK-10 renal
[53] = tested on: UACC-257 melanoma
[54] = tested on: OVCAR-8 ovarian
[55] = tested on: ACHN renal
[56] = tested on: SF-295 CNS
[57] = tested on: HL-60(TB) leukemia
[58] = tested on: CCRF-CEM leukemia

CNS(=O)(=O)Nc1nccc(Cc2c(C)c3ccc(Oc4ncccn4)cc3oc2=O)c1F
9.68 µM: TGI [22]
82.7 µM: TGI [13]
40.9 µM: TGI [15]
> 100 µM: TGI [3] | TGI [4] | TGI [5] | TGI [7] | TGI [9] | TGI [10] | TGI [11] | TGI [12] | TGI [16] | TGI [17] | TGI [18] | TGI [19] | TGI [20] | TGI [23] | TGI [24] | TGI [25] | TGI [26] | TGI [27] | TGI [30] | TGI [32] | TGI [34] | TGI [35] | TGI [36] | TGI [37] | TGI [38] | TGI [39] | TGI [40] | TGI [42] | TGI [43] | TGI [44] | TGI [46] | TGI [47] | TGI [48] | TGI [49] | TGI [51] | TGI [52] | TGI [54] | TGI [55] | TGI [56] | TGI [57]
5.49 µM: TGI [8]
83.3 µM: TGI [33]
20.5 µM: TGI [6]
2.54 µM: TGI [1]
0.586 µM: TGI [14]
0.0529 µM: TGI [53]
0.0124 µM: TGI [28]
5.95 µM: TGI [45]
0.138 µM: TGI [50]
0.0616 µM: TGI [2]
inactive: GI50 [3] 4.82 µM | GI50 [5] > 100 µM | GI50 [7] 12.5 µM | GI50 [9] 4.39 µM | GI50 [10] 0.433 µM | GI50 [11] > 100 µM | GI50 [13] 13 µM | GI50 [15] 2.92 µM | GI50 [16] 14 µM | GI50 [17] 5.57 µM | GI50 [18] 21.4 µM | GI50 [19] 0.848 µM | GI50 [20] 39.6 µM | GI50 [26] 0.549 µM | GI50 [30] 20.9 µM | GI50 [32] 6.39 µM | GI50 [33] 3.67 µM | GI50 [34] 12.9 µM | GI50 [36] 10.2 µM | GI50 [40] 15.2 µM | GI50 [42] 7.8 µM | GI50 [43] > 100 µM | GI50 [44] > 100 µM | GI50 [45] 1.75 µM | GI50 [46] > 100 µM | GI50 [47] 13.3 µM | GI50 [48] 98.4 µM | GI50 [51] 26.4 µM | GI50 [52] 7.49 µM | GI50 [54] 39.2 µM | GI50 [55] 4.16 µM | GI50 [56] 68.6 µM | GI50 [58] 5.06 µM
3.93 µM: TGI [29]
0.102 µM: TGI [41]
active: GI50 [1] 0.0459 µM | GI50 [2] 0.0137 µM | GI50 [4] 0.319 µM | GI50 [6] 0.0415 µM | GI50 [8] 0.164 µM | GI50 [12] 0.289 µM | GI50 [14] 0.0151 µM | GI50 [21] 0.0142 µM | GI50 [22] 0.048 µM | GI50 [23] 0.041 µM | GI50 [24] 0.42 µM | GI50 [25] 0.181 µM | GI50 [27] 0.413 µM | GI50 [28] < 0.01 µM | GI50 [29] 0.236 µM | GI50 [31] 0.0731 µM | GI50 [35] 0.29 µM | GI50 [37] 0.0418 µM | GI50 [38] 0.0167 µM | GI50 [39] 0.0724 µM | GI50 [41] < 0.01 µM | GI50 [49] 0.0305 µM | GI50 [50] 0.012 µM | GI50 [53] 0.012 µM | GI50 [57] < 0.01 µM
43.8 µM: TGI [31]
49.1 µM: TGI [58]
0.398 µM: TGI [21]
